According to patent US6727275B2, “Pyrrolidinone derivatives” (UCB, S.A./N.V., priority 2001, dated 2004):
pIC50: −log10 of the molar value.

biological target: T1, CCR2 (Homo sapiens, UniProt P41597); test: Binding assay: inhibition of 125I-MCP-1 binding to THP-1 cells; set-up: CCR2 is also expressed in the human monocytic cell line THP-1; endogenous in cells; host or cells: THP-1 (human monocytic cell line), whole cells; details: THP-1 cells, 0.1 nM 125I-MCP-1, 1 hr at room temperature; read-out: Inhibition of 125I-MCP-1 binding to THP-1 cells, IC50
T1 sequence (P41597 1-360 isoform P41597-2): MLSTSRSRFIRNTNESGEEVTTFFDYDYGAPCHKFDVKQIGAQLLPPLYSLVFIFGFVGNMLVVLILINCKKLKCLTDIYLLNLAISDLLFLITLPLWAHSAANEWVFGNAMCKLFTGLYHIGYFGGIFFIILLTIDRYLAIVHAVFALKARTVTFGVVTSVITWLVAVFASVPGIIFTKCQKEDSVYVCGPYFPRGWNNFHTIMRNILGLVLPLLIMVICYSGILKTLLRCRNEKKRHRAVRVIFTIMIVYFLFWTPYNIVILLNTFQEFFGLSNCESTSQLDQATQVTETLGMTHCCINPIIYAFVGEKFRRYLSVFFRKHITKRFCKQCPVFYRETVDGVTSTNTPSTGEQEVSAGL
Experimental: Antagonism of the CCR2 receptor is determined by a binding assay using the human monocytic cell line THP-1. Cells are suspended in assay buffer (RPMI+1% BSA+25 mM HEPES) at 3×10^6 cells/ml and an aliquot (180 μl) added to a 0.5 ml siliconized Eppendorf tube. […] After incubation for 1 hr at room temperature, the cell suspension is centrifuged through oil and the cell pellets counted to quantitate cell-bound ligand. Nonspecific (NS) binding of radioligand is determined by the addition of 100 nM cold MCP-1. Control binding is determined by the addition of buffer without compound.

Row | Compound | pIC50
1 | CCCC1C(C(C)=O)=C(O)C(=O)N1c1ccc(C)c(Cl)c1 (racemic) [Compound 76, 4-acetyl-1-(3-chloro-4-methylphenyl)-3-hydroxy-5-propyl-1,5-dihydro-2H-pyrrol-2-one] | ≥ 5.30
2 | CC(=O)C1=C(O)C(=O)N(c2ccc(C)cc2)C1CC(C)(C)C (racemic) [Compound 78, 4-acetyl-3-hydroxy-1-(4-methylphenyl)-5-neopentyl-1,5-dihydro-2H-pyrrol-2-one] | ≥ 5.30
3 | CC(=O)C1=C(O)C(=O)N(c2ccc(C)c(C)c2)C1CC(C)(C)C (racemic) [Compound 116, 4-acetyl-1-(3,4-dimethylphenyl)-3-hydroxy-5-neopentyl-1,5-dihydro-2H-pyrrol-2-one] | ≥ 5.30
4 | CC(=O)C1=C(O)C(=O)N(c2ccc(Cl)cc2F)C1C1CCCC1 (racemic) [Compound 119, 4-acetyl-1-(4-chloro-2-fluorophenyl)-5-cyclopentyl-3-hydroxy-1,5-dihydro-2H-pyrrol-2-one] | ≥ 5.30
5 | CC(=O)C1=C(O)C(=O)N(c2c(F)cc(Cl)cc2F)C1C1CCCCC1 (racemic) [Compound 120, 4-acetyl-1-(4-chloro-2,6-difluorophenyl)-5-cyclohexyl-3-hydroxy-1,5-dihydro-2H-pyrrol-2-one] | ≥ 5.30
6 | CNC(=O)C1=C(O)C(=O)N(c2ccc(C)cc2)C1C1CCCCC1 (racemic) [Compound 126, 2-cyclohexyl-4-hydroxy-N-methyl-1-(4-methylphenyl)-5-oxo-2,5-dihydro-1H-pyrrole-3-carboxamide] | ≥ 5.30
7 | CSC1=C(O)C(=O)N(c2ccc(Cl)cc2)C1C1CCCCC1 (racemic) [Compound 128, 1-(4-chlorophenyl)-5-cyclohexyl-3-hydroxy-4-(methylthio)-1,5-dihydro-2H-pyrrol-2-one] | ≥ 5.30
8 | Cc1ccc(N2C(=O)C(O)=C(C(N)=O)C2C2CCCCC2)cc1 (racemic) [Compound 131, 2-cyclohexyl-4-hydroxy-1-(4-methylphenyl)-5-oxo-2,5-dihydro-1H-pyrrole-3-carboxamide] | ≥ 5.30
9 | CC(=O)C1=C(O)C(=O)N(c2ccc(Br)cc2F)C1C1CCCCC1 (racemic) [Compound 142, 4-acetyl-1-(4-bromo-2-fluorophenyl)-5-cyclohexyl-3-hydroxy-1,5-dihydro-2H-pyrrol-2-one] | ≥ 5.30

Second part, the compound after the results:

Row | pIC50 | Compound
10 | ≥ 5.30 | CCc1ccc(N2C(=O)C(O)=C(C(C)=O)C2C2CCCCC2)cc1 (racemic) [Compound 77, 4-acetyl-5-cyclohexyl-1-(4-ethylphenyl)-3-hydroxy-1,5-dihydro-2H-pyrrol-2-one]
11 | ≥ 5.30 | CC(=O)C1=C(O)C(=O)N(c2ccc(Cl)cc2)C1C1CCCC1 (racemic) [Compound 118, 4-acetyl-1-(4-chlorophenyl)-5-cyclopentyl-3-hydroxy-1,5-dihydro-2H-pyrrol-2-one]
12 | ≥ 5.30 | C=C1CCC(C2C(C(C)=O)=C(O)C(=O)N2c2ccc(Cl)cc2)CC1 (racemic) [Compound 127, 4-acetyl-1-(4-chlorophenyl)-3-hydroxy-5-(4-methylenecyclohexyl)-1,5-dihydro-2H-pyrrol-2-one]
13 | ≥ 5.30 | COC1CCC(C2C(C(C)=O)=C(O)C(=O)N2c2ccc(Cl)cc2)CC1 (racemic) [Compound 132, 4-acetyl-1-(4-chlorophenyl)-3-hydroxy-5-(4-methoxycyclohexyl)-1,5-dihydro-2H-pyrrol-2-one]
14 | ≥ 5.30 | CC(=O)C1=C(O)C(=O)N(c2ccc(Cl)cc2)C1CC1CCCC1 (racemic) [Compound 134, 4-acetyl-1-(4-chlorophenyl)-5-(cyclopentylmethyl)-3-hydroxy-1,5-dihydro-2H-pyrrol-2-one]
15 | ≥ 5.30 | CC(=O)C1=C(O)C(=O)N(c2ccc(Cl)cc2)C1C1CC(C)(C)CC(C)(C)C1 (racemic) [Compound 145, 4-acetyl-1-(4-chlorophenyl)-3-hydroxy-5-(3,3,5,5-tetramethylcyclohexyl)-1,5-dihydro-2H-pyrrol-2-one]
